Measured values: patent publication US12479792B2, “Compositions of chelating molecules” (The Regents of the University of California, priority 2016, dated 2025)

Key:
[1] = Abergel et al., Inorganic chemistry 2009; given for comparison; cited from earlier work
[2] = same conditions; Abergel et al., Inorganic chemistry 2009; cited from earlier work
[3] = Deblonde et al. 2013; Sturzbecher-Hoehne et al. 2015; cited from earlier work
[4] = Th(IV) complex formation constants by spectrophotometric competition titration in the presence of DTPA; format: binding
Protocol: (§1) Metal, Chelator Solutions. The trivalent lanthanide Ln(III) working stock solutions were prepared in standardized 0.1 M HCl. A Zr(IV) stock solution was prepared by dissolving ZrCl4 in 3.0 M H2SO4, to prevent hydrolysis. The metal salt ZrCl4 was handled and stored in a glovebox kept under inert atmosphere. The Zr(IV) stock solution was standardized against EDTA, with xylene orange as the indicator (Welcher, F. J. The analytical uses of ethylenediamine tetraacetic acid; 1958). A Th(IV) stock solution was prepared in 0.1 M H2SO4. Stock solutions (4 mM) of Ent, and 3,4,3-LI(CAM) were prepared by direct dissolution of a weighed portion of chelator in DMSO and aliquots were removed prior to each set of experiments.
(§2) Solution Thermodynamics. All titrant solutions were degassed by boiling for 1 h while being purged under Ar. Carbonate-free 0.1 M KOH was prepared from concentrate (J.T Baker Dilut-It) and was standardized by titrating against 0.1 M potassium hydrogen phthalate (99.95%, Sigma Aldrich). Solutions of 0.1 M HCl were similarly prepared and were standardized by titrating against TRIS (99.9%, J.T. Baker). The glass electrode (Metrohm-Micro Combi-response to [H+]) used for the pH measurements was calibrated at 25.0° C. and at an ionic strength of 0.1 M (KCl) before each potentiometric or spectrophotometric titration. The calibration data were analyzed using the program GLEE (Gans & O'Sullivan, Talanta, 2000, 51 (1): 33-37) to refine for the E° and slope. All thermodynamic measurements were conducted at 25.0° C., in 0.1 M KCl supporting electrolyte under positive Ar gas pressure. The automated titration system was controlled by an 867 pH Module (Metrohm). […]
(§3) Incremental Spectrophotometric Titrations. […] For the 3,4,3-LI(CAM) protonation (and Eu(III)-3,4,3-LI(CAM) complexes), titrations were performed with an initial concentration of 50 μM of 3,4,3-LI(CAM) (and 50 μM of Eu(III)) resulting in absorbance values included between 0 and 1.0 throughout the titration. […]

[5] = Zr(IV) complex formation constants by spectrophotometric competition titration in the presence of DTPA; format: binding
Protocol: as §1, §2, §3

[6] = Eu(III) complex formation constants by incremental spectrophotometric titration; format: binding
Protocol: as §1, §2, §3

| Compound | overall acidity ΣpKa5-8 [1] | pH at which Eu(III) species already appear [2] | pH at which 4+ metal complexes are formed [3] | log β110, stability constant of Th(IV) complex ([4]; I=0.1 M (KCl), T=25° C.) | predominant Th(IV) species at physiological pH ([4]; pH 7.4, speciation diagram, 1 equivalent of Th(IV)) | pH at which Th(IV) complexes start forming ([4]; speciation diagram, 1 equivalent of Th(IV), [Th]=[CAM]=10 μM, T=25° C., I=0.1 M, Hyss) | log β110, stability constant of Zr(IV) complex ([5]; I=0.1 M (KCl), T=25° C.) | predominant Zr(IV) species at physiological pH ([5]; pH 7.4, speciation diagram, 1 equivalent of Zr(IV)) | pH at which Zr(IV) complexes start forming ([5]; speciation diagram, 1 equivalent of Zr(IV), [Zr]=[CAM]=10 μM, T=25° C., I=0.1 M, Hyss) | log β110, stability constant of Eu(III) complex ([6]; I=0.1 M (KCl), T=25° C.) | only Eu(III) species present at pH 7.4 ([6]; pH 7.4, speciation diagram, 1 equivalent of Eu(III)) | pH at which Eu(III) complexation starts ([6]; speciation diagram, 1 equivalent of Eu(III), [Eu]=[CAM]=10 μM, T=25° C., I=0.1 M, Hyss) |
| --- | --- | --- | --- | --- | --- | --- | --- | --- | --- | --- | --- | --- |
| O=C(NCCCN(CCCCN(CCCNC(=O)c1cccc(=O)n1O)C(=O)c1cccc(=O)n1O)C(=O)c1cccc(=O)n1O)c1cccc(=O)n1O [3,4,3-LI(1,2-HOPO)] | 21.2 | 1 | < 0 |  |  |  |  |  |  |  |  |  |
| O=C(NCCCN(CCCCN(CCCNC(=O)c1cccc(O)c1O)C(=O)c1cccc(O)c1O)C(=O)c1cccc(O)c1O)c1cccc(O)c1O [3,4,3-LI(CAM)] |  |  |  | 47.7 | [MIVLH]^3− and [MIVL]^4− | ~3 | 57.3 | [MIVLH]^3− and [MIVL]^4− | ~3 | 29.7 | [Eu^IIILH]^4− | 5 |
